Results reported in publication PMC9229919, “4-Aminoquinoline-Based Adamantanes as Potential Anticholinesterase Agents in Symptomatic Treatment of Alzheimer’s Disease” (Pharmaceutics, 2022).
Like-named read-outs stand apart in the source and are kept apart here.

Tests used:
[1] = Ferric reducing antioxidant power (FRAP) assay; settings: mean ± standard error of three experiments;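 note: expressed as µM Fe2+ equivalents from an FeSO4·7H2O standard curve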
Experimental: . All the chemicals were purchased from Sigma-Aldrich (St. Louis, MO, USA), except for tripyridyltriazine (TPTZ) (Fluka, Buchs, Switzerland) and FeCl3 (Kemika, Zagreb, Croatia). The FRAP assay was assessed according to Benzie and Strain [53] with slight procedure adjustments for 96-well microplates. The method is based on the reduction of the ferric-tripyridyltriazine (Fe^3+-TPTZ) complex to ferrous tripyridyltriazine (Fe^2+-TPTZ) by the action of electron-donating compounds at a low pH. Briefly, the FRAP reagent was prepared by mixing acetate buffer (300 mM, pH 3.6), a solution of 10 mM TPTZ in 40 mM HCl, and 20 mM FeCl3 at 10:1:1 (v/v/v). Then, 240 μL of FRAP reagent and 10 μL of sample solution were added to a 96-well plate and incubated at 37 °C for 60 min. The absorbance was measured at 593 nm using a microplate reader (Infinite M200PRO, Tecan Austria GmbH, Salzburg, Austria) against a blank. The reducing capacity was determined for 10 and 100 µM compound concentrations. […]. All measurements were performed in three independent experiments. FRAP values, denominating the reduction of ferric-tripyridyltriazine (Fe^3+-TPTZ) to ferrous tripyridyltriazine (Fe^2+-TPTZ) by 4-aminoquinolines were calculated based on a standard curve obtained using […].

[2] = Reverse-phase thin-layer chromatographic lipophilicity (RF, RM0); type: physicochemical; settings: for RM0: intercept of RM = RM0 + bC; for b: slope of RM = RM0 + bC; for RF, Methanol/Water/Hydrochloric acid (conc.), mobile phase I / RF, Dioxane/Water/Hydrochloric acid (conc.), mobile phase II / RF, Methanol/Water/Hydrochloric acid (conc.), mobile phase II / RF, Acetone/Water/Hydrochloric acid (conc.), mobile phase III / RF, Dioxane/Water/Hydrochloric acid (conc.), mobile phase III / RF, Methanol/Water/Hydrochloric acid (conc.), mobile phase III / RF, Dioxane/Water/Hydrochloric acid (conc.), mobile phase IV / RF, Acetone/Water/Hydrochloric acid (conc.), mobile phase IV / RF, Methanol/Water/Hydrochloric acid (conc.), mobile phase IV / RF, Acetone/Water/Hydrochloric acid (conc.), mobile phase IX / RF, Methanol/Water/Hydrochloric acid (conc.), mobile phase IX / RF, Dioxane/Water/Hydrochloric acid (conc.), mobile phase V / RF, Acetone/Water/Hydrochloric acid (conc.), mobile phase V / RF, Methanol/Water/Hydrochloric acid (conc.), mobile phase V / RF, Dioxane/Water/Hydrochloric acid (conc.), mobile phase VI / RF, Acetone/Water/Hydrochloric acid (conc.), mobile phase VI / RF, Methanol/Water/Hydrochloric acid (conc.), mobile phase VI / RF, Acetone/Water/Hydrochloric acid (conc.), mobile phase VII / RF, Methanol/Water/Hydrochloric acid (conc.), mobile phase VII / RF, Acetone/Water/Hydrochloric acid (conc.), mobile phase VIII / RF, Methanol/Water/Hydrochloric acid (conc.), mobile phase VIII: RP-18 silica; for RF, Methanol/Water/Hydrochloric acid (conc.), mobile phase I: I = 90%MeOH/5%H2O/5%HCl; for RF, Dioxane/Water/Hydrochloric acid (conc.), mobile phase II: II = 80%Dioxane/15%H2O/5%HCl; for RF, Methanol/Water/Hydrochloric acid (conc.), mobile phase II: II = 85%MeOH/10%H2O/5%HCl; for RF, Acetone/Water/Hydrochloric acid (conc.), mobile phase III: III = 70%AC/25%H2O/5%HCl; for RF, Dioxane/Water/Hydrochloric acid (conc.), mobile phase III: III = 70%Dioxane/25%H2O/5%HCl; for RF, Methanol/Water/Hydrochloric acid (conc.), mobile phase III: III = 80%MeOH/15%H2O/5%HCl; for RF, Dioxane/Water/Hydrochloric acid (conc.), mobile phase IV: IV = 60%Dioxane/35%H2O/5%HCl; for RF, Acetone/Water/Hydrochloric acid (conc.), mobile phase IV: IV = 65%AC/30%H2O/5%HCl; for RF, Methanol/Water/Hydrochloric acid (conc.), mobile phase IV: IV = 75%MeOH/20%H2O/5%HCl; for RF, Acetone/Water/Hydrochloric acid (conc.), mobile phase IX: IX = 40%AC/55%H2O/5%HCl; for RF, Methanol/Water/Hydrochloric acid (conc.), mobile phase IX: IX = 50%MeOH/45%H2O/5%HCl; for RF, Dioxane/Water/Hydrochloric acid (conc.), mobile phase V: V = 50%Dioxane/45%H2O/5%HCl; for RF, Acetone/Water/Hydrochloric acid (conc.), mobile phase V: V = 60%AC/35%H2O/5%HCl; for RF, Methanol/Water/Hydrochloric acid (conc.), mobile phase V: V = 70%MeOH/25%H2O/5%HCl; for RF, Dioxane/Water/Hydrochloric acid (conc.), mobile phase VI: VI = 40%Dioxane/55%H2O/5%HCl; for RF, Acetone/Water/Hydrochloric acid (conc.), mobile phase VI: VI = 55%AC/40%H2O/5%HCl; for RF, Methanol/Water/Hydrochloric acid (conc.), mobile phase VI: VI = 65%MeOH/30%H2O/5%HCl; for RF, Acetone/Water/Hydrochloric acid (conc.), mobile phase VII: VII = 50%AC/45%H2O/5%HCl; for RF, Methanol/Water/Hydrochloric acid (conc.), mobile phase VII: VII = 60%MeOH/35%H2O/5%HCl; for RF, Acetone/Water/Hydrochloric acid (conc.), mobile phase VIII: VIII = 45%AC/50%H2O/5%HCl; for RF, Methanol/Water/Hydrochloric acid (conc.), mobile phase VIII: VIII = 55%MeOH/40%H2O/5%HCl
Experimental: Chromatographic determination of lipophilicity
Merck, Darmstadt, Germany). The mobile phase contained organic modifier (methanol, acetone or dioxane), water and hydrochloric acid.
Methanol was varied in the range […]
with an increment of 10%. […]
before chromatogram development. The solvent developing distance was 4.5 cm. Detection of […]
All experiments were performed at ambient temperature (22±2 °C). Retention parameters were calculated as previously described. […]

recombinant human AChE = target: T1, recombinant human AChE (Homo sapiens, UniProt P22303); experiment: biochemical; type: biochemical; settings: for IS: IS = Ki(BChE)/Ki(AChE), IS > 1 selective to AChE
T1 construct: gift of Dr Florian Nachon (Armed Forces Biomedical Research Institute, Brétigny-sur-Orge, France)
T1 sequence (P22303 32-614): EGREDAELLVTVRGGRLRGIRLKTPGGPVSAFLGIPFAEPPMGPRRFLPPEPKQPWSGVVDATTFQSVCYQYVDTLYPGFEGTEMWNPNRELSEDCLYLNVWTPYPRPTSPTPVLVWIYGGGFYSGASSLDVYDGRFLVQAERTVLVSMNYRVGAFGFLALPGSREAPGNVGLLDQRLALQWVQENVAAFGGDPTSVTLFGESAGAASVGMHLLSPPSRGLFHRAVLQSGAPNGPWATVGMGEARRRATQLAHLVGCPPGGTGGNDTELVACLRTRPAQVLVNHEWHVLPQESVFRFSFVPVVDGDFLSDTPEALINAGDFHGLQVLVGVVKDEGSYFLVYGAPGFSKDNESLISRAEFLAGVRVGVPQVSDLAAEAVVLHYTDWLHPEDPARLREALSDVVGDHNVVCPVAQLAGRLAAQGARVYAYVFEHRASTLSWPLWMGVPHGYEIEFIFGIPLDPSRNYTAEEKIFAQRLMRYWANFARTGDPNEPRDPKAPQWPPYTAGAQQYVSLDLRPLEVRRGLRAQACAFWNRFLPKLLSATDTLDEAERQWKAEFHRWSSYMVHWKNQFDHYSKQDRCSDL
Experimental: (§1) Acetylthiocholine (ATCh) and 5,5′-dithiobis(2-nitrobenzoic acid) (DTNB) were purchased from Sigma-Aldrich, St. Louis, MO, USA. ATCh was dissolved in water and DTNB in 0.1 M sodium phosphate buffer (pH 7.4). The 4-aminoquinilines were dissolved in DMSO and all further dilutions were made in water.
(§2) The sources of AChE and BChE were purified human BChE and recombinant human AChE that was kindly provided by Dr Florian Nachon (Département de Toxicologie, Armed Forces Biomedical Research Institute, Brétigny-sur-Orge, France). […] The enzymes were diluted in sodium phosphate buffer 0.1 M (pH 7.4) containing 0.1% BSA.
(§3) Enzyme activities were measured spectrophotometrically using a slightly modified Ellman method, as described earlier. […] At least three inhibitor concentrations for each substrate concentration were used in at least three experiments. The apparent inhibition constant (Ki,app) was calculated using the Hunter–Downs Equation and linear regression analysis:(1) Ki,app=vi·i/v0−vi=Ki+Ki/KS·s where the y-intercept determines the enzyme-inhibitor dissociation constant (Ki), while the x-intercept determines the enzyme-substrate dissociation constant, KS.
(§4) The Hunter–Downs Equation was used under the assumption that the substrate, due to relatively low concentrations used in experiments, would bind only to the catalytic site of the enzymes, while the inhibitors would bind to both CAS and/or PAs. This allowed the type of inhibition to be determined from Ki,app vs. substrate concentration ([S]) dependency on Hunter–Downs plot.
(§5) The final content of DMSO in the measurements was up to 0.2%. […] The measurements were performed at 25 °C on a Tecan Infinite M200Pro plate reader (Tecan Austria GmbH, Salzburg, Austria).

purified human BChE = target: T2, purified human BChE (Homo sapiens, UniProt P06276); experiment: biochemical; type: biochemical
T2 construct: possibly also a gift of Dr Florian Nachon (the sentence is ambiguous)
T2 sequence (P06276 29-602): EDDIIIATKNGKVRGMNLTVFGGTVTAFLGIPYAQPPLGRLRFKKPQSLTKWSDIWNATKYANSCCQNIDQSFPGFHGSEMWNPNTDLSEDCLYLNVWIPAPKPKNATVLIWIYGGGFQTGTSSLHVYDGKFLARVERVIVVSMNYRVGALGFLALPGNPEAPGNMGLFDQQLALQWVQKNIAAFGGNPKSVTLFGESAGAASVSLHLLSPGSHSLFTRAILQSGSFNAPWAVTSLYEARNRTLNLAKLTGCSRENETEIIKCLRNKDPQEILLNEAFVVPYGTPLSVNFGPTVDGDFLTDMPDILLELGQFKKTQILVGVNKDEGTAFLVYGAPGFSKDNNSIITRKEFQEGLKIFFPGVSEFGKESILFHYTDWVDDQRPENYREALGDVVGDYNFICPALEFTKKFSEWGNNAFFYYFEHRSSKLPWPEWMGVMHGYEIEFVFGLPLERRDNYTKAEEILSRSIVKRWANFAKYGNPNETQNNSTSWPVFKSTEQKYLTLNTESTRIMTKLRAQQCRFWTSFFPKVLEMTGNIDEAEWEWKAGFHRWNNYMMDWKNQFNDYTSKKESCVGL
Experimental: as §1, §2, §3, §4, §5

[3] = Acetone/Water/Hydrochloric acid (conc.)
[4] = Dioxane/Water/Hydrochloric acid (conc.)
[5] = Methanol/Water/Hydrochloric acid (conc.)
[6] = log (Ki/µM AChE), read-out: Y Measured 1 log(ki)Ache (converted)
[7] = ± standard error, 25 °C, ATCh substrate, read-out: Ki AChE
[8] = logarithm of Ki in µM, BChE, dependent variable of the QSAR model, read-out: Y Measured 2 log(ki)Bche, log (Ki/µM BChE) (converted)
[9] = ± standard error, 25 °C, ATCh substrate, read-out: Ki BChE

| Structure (SMILES) | FRAP ([1]; 100 µM compound) [µM] | RM0 [2, 3] | b [2, 3] | RM0 [2, 4] | b [2, 4] | RM0 [2, 5] | b [2, 5] | RF, Methanol/Water/Hydrochloric acid (conc.), mobile phase I [2] | RF, Dioxane/Water/Hydrochloric acid (conc.), mobile phase II [2] | RF, Methanol/Water/Hydrochloric acid (conc.), mobile phase II [2] | RF, Acetone/Water/Hydrochloric acid (conc.), mobile phase III [2] | RF, Dioxane/Water/Hydrochloric acid (conc.), mobile phase III [2] | RF, Methanol/Water/Hydrochloric acid (conc.), mobile phase III [2] | RF, Dioxane/Water/Hydrochloric acid (conc.), mobile phase IV [2] | RF, Acetone/Water/Hydrochloric acid (conc.), mobile phase IV [2] | RF, Methanol/Water/Hydrochloric acid (conc.), mobile phase IV [2] | RF, Acetone/Water/Hydrochloric acid (conc.), mobile phase IX [2] | RF, Methanol/Water/Hydrochloric acid (conc.), mobile phase IX [2] | RF, Dioxane/Water/Hydrochloric acid (conc.), mobile phase V [2] | RF, Acetone/Water/Hydrochloric acid (conc.), mobile phase V [2] | other results |
| --- | --- | --- | --- | --- | --- | --- | --- | --- | --- | --- | --- | --- | --- | --- | --- | --- | --- | --- | --- | --- | --- |
| Cc1cc(C(C)(C)C)c(O)c(C(C)(C)C)c1 [BHT, butylated hydroxytoluene, reference compound] | 3021 ± 117 |  |  |  |  |  |  |  |  |  |  |  |  |  |  |  |  |  |  |  |  |
| Clc1ccc2c(NCCNCC34CC5CC(CC(C5)C3)C4)ccnc2c1 [Compound 1] | 20 ± 4 | 1.738 | 2.883 | 0.8129 | 1.796 | 2.081 | 2.812 | 0.72 | 0.78 | 0.68 | 0.62 | 0.73 | 0.54 | 0.73 | 0.59 | 0.55 | 0.16 | 0.15 | 0.55 | 0.51 | RF, Methanol/Water/Hydrochloric acid (conc.), mobile phase V [2]: 0.48; RF, Dioxane/Water/Hydrochloric acid (conc.), mobile phase VI [2]: 0.4; RF, Acetone/Water/Hydrochloric acid (conc.), mobile phase VI [2]: 0.41; RF, Methanol/Water/Hydrochloric acid (conc.), mobile phase VI [2]: 0.43; RF, Acetone/Water/Hydrochloric acid (conc.), mobile phase VII [2]: 0.36; RF, Methanol/Water/Hydrochloric acid (conc.), mobile phase VII [2]: 0.28; RF, Acetone/Water/Hydrochloric acid (conc.), mobile phase VIII [2]: 0.32; RF, Methanol/Water/Hydrochloric acid (conc.), mobile phase VIII [2]: 0.22; IS (recombinant human AChE): 1.8; Ki (recombinant human AChE; [6]): 1.2 µM; Ki (recombinant human AChE; [7]): 1.2 ± 0.1 µM; less potent inhibitors of BChE than compounds 3 or 4 (purified human BChE): about 3.2 times; Ki (purified human BChE; [8]): 2.1 µM; Ki (purified human BChE; [9]): 2.1 ± 0.2 µM; FRAP ([1]; 10 µM compound): 2.4 ± 1.3 µM |
| Clc1ccc2c(NCCCCNCC34CC5CC(CC(C5)C3)C4)ccnc2c1 [Compound 3] | 38 ± 6 | 1.838 | 3.04 | 0.7921 | 1.783 | 2.348 | 3.092 | 0.71 | 0.78 | 0.65 | 0.63 | 0.74 | 0.51 | 0.74 | 0.58 | 0.53 | 0.15 | 0.11 | 0.55 | 0.51 | RF, Methanol/Water/Hydrochloric acid (conc.), mobile phase V [2]: 0.44; RF, Dioxane/Water/Hydrochloric acid (conc.), mobile phase VI [2]: 0.41; RF, Acetone/Water/Hydrochloric acid (conc.), mobile phase VI [2]: 0.41; RF, Methanol/Water/Hydrochloric acid (conc.), mobile phase VI [2]: 0.37; RF, Acetone/Water/Hydrochloric acid (conc.), mobile phase VII [2]: 0.35; RF, Methanol/Water/Hydrochloric acid (conc.), mobile phase VII [2]: 0.25; RF, Acetone/Water/Hydrochloric acid (conc.), mobile phase VIII [2]: 0.3; RF, Methanol/Water/Hydrochloric acid (conc.), mobile phase VIII [2]: 0.18; IS (recombinant human AChE): 0.9; Ki (recombinant human AChE; [6]): 1 µM; Ki (recombinant human AChE; [7]): 1 µM; Ki (purified human BChE; [8]): 0.92 µM; Ki (purified human BChE; [9]): 0.92 ± 0.04 µM; FRAP ([1]; 10 µM compound): 0 µM |
